Results taken from patent US11840686B2, “Modulation of prekallikrein (PKK) expression” (Ionis Pharmaceuticals, Inc., priority 2013, dated 2023).
Strand notation (5' to 3'): a small letter for the sugar, then the base; units joined by * are phosphorothioate-linked, units joined directly phosphodiester-linked; [ ] holds rarer units or linkages, { } end groups; capitals alone tell only the bases. e = 2'-O-(2-methoxyethyl) (MOE); [5mC] = 5-methylcytosine; d = 2'-deoxy (DNA)

Assays:
[1] = test system: human PKK mRNA; assay: Antisense inhibition of human PKK mRNA in HepaRG cells, 5,000 nM (Example 2); assay type: cell-based
Summary of the method: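 qRT-PCR (RTS3454) read-out, RIBOGREEN-normalized; % inhibition vs untreated cells. HepaRG, 20,000 cells/well, electroporation, 5,000 nM ASO, ~24 h.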

[2] = test system: vascular leakage; assay: Vascular leakage, plasma Evans Blue OD620, captopril model (Example 13); assay type: in vivo, mouse; conditions: for Percentage of OD620 nm of Evans Blue dye compared to the PBS basal control, Plasma: captopril Yes
Procedure: Groups 4, 5, 6, 7, 8, and 9 consisted of 8 mice each and were treated with 2.5 mg/kg, 5 mg/kg, 10 mg/kg, 20 mg/kg, 40 mg/kg, or 80 mg/kg (corresponding to 5 mg/kg, 10 mg/kg, 20 mg/kg, 40 mg/kg, 80 mg/kg, or 160 mg/kg per week), respectively of ISIS 482584 administered subcutaneously twice a week for 3 weeks. At the end of the treatment period, the mice of all the groups were intraperitoneally administered 20 μg of captopril. Groups 4-9 served as the experimental treatment groups for examining the effect of varying doses of ISIS 482584 on captopril-induced vascular permeability.
All the groups were then injected with 30 mg/kg of Evans Blue solution in the tail vein. The mice were sacrificed 30 min after the Evans Blue solution administration and colons, feet, ears, and intestines were harvested. Blood samples were taken through cardiac puncture.
The blood drawn through cardiac puncture was immediately mixed with 3 times the volume of ice-cold ethanol. The solution was centrifuged at 15,000 g for 20 minutes at 4° C. to remove cell debris and precipitated plasma proteins. The ethanol extracts were further purified by ultra-filtration through a 10 kDa MWCO filter. The color intensity of the ethanol extracted plasma solution was then measured at OD620 nm. The results are presented in Table 67 as percentage increase or decrease of the OD values of the Group 1 PBS control.

[3] = test system: basal and captopril-induced vascular permeability; assay: Evans Blue basal and captopril-induced vascular permeability in mice (Example 12); assay type: in vivo, mouse; conditions: for OD600 nm of Evans Blue dye, Colon / OD600 nm of Evans Blue dye, Ears / OD600 nm of Evans Blue dye, Feet / OD600 nm of Evans Blue dye, Intestine: ISIS 482584 40 mg/kg sc twice a week 4 weeks, HOE-140 30 μg ip
Procedure: Basal permeability is the level of vascular permeability occurring in the tissues of naïve, untreated mice. The effect of ISIS 482584 in the prevention of vascular permeability, either basal or captopril-induced, was evaluated.
Group 1 consisted of 8 mice and was treated with PBS administered subcutaneously twice a week for 4 weeks. No other treatment was administered to Group 1 which served as a control group to measure the basal levels of vascular permeability.
Group 2 consisted of 8 mice and was treated with PBS administered subcutaneously twice a week for 4 weeks. At the end of the treatment period, the mice were intraperitoneally administered 20 μg of captopril. Group 2 served as the negative control group for captopril-induced vascular permeability.
Group 3 consisted of 8 mice and was treated with PBS administered subcutaneously twice a week for 4 weeks. At the end of the treatment period, the mice were intraperitoneally administered 30 μg of HOE-140. Group 3 served as a positive control for inhibition of basal vascular permeability.
Group 4 consisted of 8 mice and was treated with PBS administered subcutaneously twice a week for 4 weeks. At the end of the treatment period, the mice were intraperitoneally administered 20 μg of captopril. The mice were also intraperitoneally administered 30 μg of HOE-140. Group 4 served as a positive control for inhibition of captopril-induced vascular permeability.
(§1) Group 5 consisted of 8 mice and was treated with 40 mg/kg of ISIS 482584 administered subcutaneously twice a week for 4 weeks. Group 5 served as an experimental treatment group for examining the effect of ISIS 482584 on basal vascular permeability.
as §1, with “Group 6” for “Group 5”, “weeks. At the end of the treatment period, the mice were intraperitoneally administered 20 μg of captopril.” for “weeks.”, “on captopril-induced” for “on basal”
All the groups were then injected with 30 mg/kg of Evans Blue solution. The mice were sacrificed 30 min after the Evans Blue solution administration and colons, feet, ears, and intestines were harvested.
The harvested tissues from the feet, colon, intestine, and ears were placed separately in formamide solution overnight to leach out the Evans Blue dye. The formamide solution containing feet and ear tissue was heated to 55° C. and left overnight.

Molecule: 531231 (eT*eA*eT*e[5mC]*eA*d[5mC]*dT*dG*dT*dA*d[5mC]*dT*dA*dG*dT*eT*eT*e[5mC]*e[5mC]*eT) [compound 531231]
- % inhibition ([1]; HepaRG cells, 5,000 nM antisense oligonucleotide, human PKK mRNA, Table 18): 90%
- % inhibition ([1]; HepaRG cells, 5,000 nM antisense oligonucleotide, 5-10-5 gapmers, Table 16): 93%
- % inhibition ([1]; HepaRG cells, 5,000 nM antisense oligonucleotide, 5-10-5 gapmers, Table 17): 91%
- % inhibition ([1]; HepaRG cells, electroporation with 5,000 nM antisense oligonucleotide, approximately 24 hours, PKK mRNA by RT-PCR (RTS3454), relative to untreated control cells, Table 5 experiment): 98%
- % inhibition ([1]; HepaRG cells, electroporation with 5,000 nM antisense oligonucleotide, approximately 24 hours, PKK mRNA by RT-PCR (RTS3454), relative to untreated control cells, Table 6 experiment): 86%
- % inhibition ([1]; HepaRG cells, electroporation, 5,000 nM antisense oligonucleotide, approx. 24 hours, primer probe set RTS3454, relative to untreated control cells, Table 11): 90%
- % inhibition ([1]; HepaRG cells, electroporation, 5,000 nM antisense oligonucleotide, approx. 24 hours, primer probe set RTS3454, relative to untreated control cells, Table 12): 90%
- % inhibition ([1]; Table 7, HepaRG cells, electroporation with 5,000 nM antisense oligonucleotide, approx. 24 hours, PKK mRNA by RT-PCR (RTS3454), relative to untreated control cells): 88%
- % inhibition ([1]; Table 8, HepaRG cells, electroporation with 5,000 nM antisense oligonucleotide, approx. 24 hours, PKK mRNA by RT-PCR (RTS3454), relative to untreated control cells): 95%
- % inhibition ([1]; Table 9 experiment, HepaRG cells, 20,000 cells per well, electroporation with 5,000 nM antisense oligonucleotide, approx. 24 hours, PKK mRNA by RT-PCR (RTS3454), relative to untreated control cells): 96%
- % inhibition ([1]; Table 10 experiment, HepaRG cells, 20,000 cells per well, electroporation with 5,000 nM antisense oligonucleotide, approx. 24 hours, PKK mRNA by RT-PCR (RTS3454), relative to untreated control cells): 72%
- % inhibition ([1]; Table 13, human PKK mRNA in HepaRG cells, 5-10-5 gapmers): 85%
- % inhibition ([1]; human PKK mRNA in HepaRG cells, 5-10-5 gapmers, Table 14): 85%
- % inhibition ([1]; human PKK mRNA, HepaRG cells, 5-10-5 motif oligonucleotides targeting SEQ ID NO: 1 and 10): 93%

Molecule: NC(N)=NCCC[C@@H](N)C(=O)N[C@@H](CCCN=C(N)N)C(=O)N1CCC[C@H]1C(=O)N1C[C@H](O)C[C@H]1C(=O)NCC(=O)N[C@@H](Cc1cccs1)C(=O)N[C@@H](CO)C(=O)N1Cc2ccccc2C[C@@H]1C(=O)N1[C@H](C(=O)N[C@@H](CCCN=C(N)N)C(=O)O)C[C@@H]2CCCC[C@@H]21 [HOE-140, Icatibant, reference compound]
- Percentage of OD620 nm of Evans Blue dye compared to the PBS basal control, Plasma ([2]; HOE-140 30 μg ip): 5%
- OD600 nm of Evans Blue dye, Colon ([3]; basal (captopril No)): 0.18
- OD600 nm of Evans Blue dye, Ears ([3]; basal (captopril No)): 0.03
- OD600 nm of Evans Blue dye, Feet ([3]; basal (captopril No)): 0.06
- OD600 nm of Evans Blue dye, Intestine ([3]; basal (captopril No)): 0.21
- OD600 nm of Evans Blue dye, Colon ([3]; captopril Yes): 0.29
- OD600 nm of Evans Blue dye, Ears ([3]; captopril Yes): 0.00
- OD600 nm of Evans Blue dye, Feet ([3]; captopril Yes): 0.03
- OD600 nm of Evans Blue dye, Intestine ([3]; captopril Yes): 0.14

Molecule: ISIS 482584: 5-10-5 MOE gapmer targeting murine PKK, GGCATATTGGTTTTTGGAAT; SEQ ID NO: 2244 (antisense eG*eG*e[5mC]*eA*eT*dA*dT*dT*dG*dG*dT*dT*dT*dT*dT*eG*eG*eA*eA*eT)
- vascular leakage ([2]; 160 mg/kg/week and 80 mg/kg/week, vs PBS negative control treated with captopril): less vascular leakage
- Percentage of OD620 nm of Evans Blue dye compared to the PBS basal control, Plasma ([2]; dose 5 mg/kg): −23%
- Percentage of OD620 nm of Evans Blue dye compared to the PBS basal control, Plasma ([2]; dose 10 mg/kg): −20%
- Percentage of OD620 nm of Evans Blue dye compared to the PBS basal control, Plasma ([2]; dose 20 mg/kg): −26%
- Percentage of OD620 nm of Evans Blue dye compared to the PBS basal control, Plasma ([2]; dose 40 mg/kg): −31%
- Percentage of OD620 nm of Evans Blue dye compared to the PBS basal control, Plasma ([2]; dose 80 mg/kg): 40%
- Percentage of OD620 nm of Evans Blue dye compared to the PBS basal control, Plasma ([2]; dose 160 mg/kg): 91%
- basal vascular permeability ([3]; 40 mg/kg s.c. twice a week for 4 weeks, Group 5 vs. Group 1): reduced basal vascular permeability
- captopril-induced vascular permeability ([3]; 40 mg/kg s.c. twice a week for 4 weeks, Group 6 vs. Group 2): reduced captopril-induced vascular permeability in most tissues
- OD600 nm of Evans Blue dye, Colon ([3]; basal (captopril No)): 0.19
- OD600 nm of Evans Blue dye, Ears ([3]; basal (captopril No)): 0.04
- OD600 nm of Evans Blue dye, Feet ([3]; basal (captopril No)): 0.07
- OD600 nm of Evans Blue dye, Intestine ([3]; basal (captopril No)): 0.22
- OD600 nm of Evans Blue dye, Colon ([3]; captopril Yes): 0.37
- OD600 nm of Evans Blue dye, Ears ([3]; captopril Yes): 0.00
- OD600 nm of Evans Blue dye, Feet ([3]; captopril Yes): 0.05
- OD600 nm of Evans Blue dye, Intestine ([3]; captopril Yes): 0.22

Molecule: Tes Ges mCes Aes Aes Gds Tds mCds Tds mCds Tds Tds Gds Gds mCds Aes Aes Aes mCes Ae [ISIS 546254]
- inhibition of human PKK mRNA ([1]; HepaRG cells, 5,000 nM, electroporation, 24 hours): 95%
